Like-named read-outs stand apart in the source and are kept apart here.
How the values were obtained:
ZIKV = experiment: microbe, parasite or virus in culture; type: cell-based; settings: Zika virus, Vero 76
MERS = experiment: microbe, parasite or virus in culture; type: cell-based, MERS coronavirus; settings: Middle East respiratory syndrome-related coronavirus, Vero C1008
Punta Toro virus = experiment: microbe, parasite or virus in culture; type: cell-based
Junin virus = experiment: microbe, parasite or virus in culture; type: cell-based; settings: Mammarenavirus juninense, Vero, Vero cells
[1] = Cytotoxicity (CC50) run with antiviral assays, MA-104 cells; settings: African green monkey, CC50, MA-104 cells, Parainfluenza and RSV table
NV = experiment: microbe, parasite or virus in culture; type: cell-based; settings: Norovirus, HG23
[2] = rat, in vivo, po, 50 mg/kg
POWV = experiment: microbe, parasite or virus in culture; type: cell-based; settings: Powassan virus, BHK, BHK cells
Poliovirus -1 = experiment: microbe, parasite or virus in culture; type: cell-based; settings: Enterovirus C, Vero 76, Poliovirus -1, Vero76 cells
Flu A H5N1 (Low Path) = experiment: microbe, parasite or virus in culture; type: cell-based; settings: Influenza A virus, H5N1, MDCK
RSV = experiment: microbe, parasite or virus in culture; type: cell-based, respiratory syncytial virus
YFV = experiment: microbe, parasite or virus in culture; type: cell-based; settings: Yellow fever virus, Vero 76
Maporal virus = experiment: microbe, parasite or virus in culture; type: cell-based
[3] = cynomolgus monkey, in vivo, po; for AUC0->24 h / CL / Cmax / t1/2 / tmax: 0.4 mmol/kg
WEEV = experiment: microbe, parasite or virus in culture; type: cell-based; settings: Western equine encephalitis virus
[4] = tested on: Lymphocytic choriomeningitis virus; experiment: microbe, parasite or virus in culture; type: cell-based; settings: Mammarenavirus choriomeningitidis, Vero
in vivo = settings: ICR (CD-1), mouse, 180 mg/kg
HCoV = experiment: microbe, parasite or virus in culture; type: cell-based; settings: unidentified human coronavirus, Vero C1008
VEEV = experiment: microbe, parasite or virus in culture; type: cell-based; settings: Venezuelan equine encephalitis virus
Pichinde virus = experiment: microbe, parasite or virus in culture; type: cell-based; settings: Vero, Vero cells
EBOV = experiment: microbe, parasite or virus in culture; type: cell-based, Ebola virus; settings: Zaire ebolavirus, Vero
[5] = Plasma pharmacokinetics in dogs after a single dose of EIDD-2800; settings: dog, 140 mg/kg
CEM cells = type: cell-based; settings: CEM cells (lowest of the range)

With `O=c1nc(NO)ccn1C1OC(CO)C(O)C1O` (stereo not shown) [EIDD-1931, 1-(3,4-dihydroxy-5-(hydroxymethyl)tetrahydrofuran-2-yl)-4-(hydroxyamino)pyrimidin-2-one] the EC90 (ZIKV) was 2.36 µM, the EC50 (MERS) was < 0.8 µM and the EC90 (MERS) was < 0.8 µM. It also gave an EC50 (Punta Toro virus) of 20.4 µM, an EC50 (Punta Toro virus; Punta Toro virus, Vero 76) of 20 µM and an EC50 (Junin virus) of 18.4 µM. The CC50 [1] was 272 µM, the EC50 (NV) was > 100 µM and the EC90 (NV) was > 100 µM. The “calculated bioavailability (% F)” value ([2]; male, Sprague-Dawley (SD)) was 28%, the tissue distribution [2] was “well distributed into all tissues tested” and the EC50 (POWV) was 11.2 µM. For the same molecule, the EC50 (Poliovirus -1) was 12.8 µM, the EC50 (Flu A H5N1 (Low Path)) was 1.28 µM and the EC50 (RSV) was 27.6 µM. For the same molecule, the EC50 (RSV; human respiratory syncytial virus, MA104) was 14 µM, the EC90 (YFV) was 26 µM and the EC50 (Maporal virus) was > 124 µM. The EC50 (Maporal virus; Maporal virus, Vero 76) was 84 µM, the bioavailability [3] was “low bioavailability” and the F ([3]; female) was ~3%. The “AUC0->24 h” value ([3]; female) was 7.21 ± 4.21 µM·h, the CL ([3]; female) was 1100 ± 527 mL/min/kg and the Cmax ([3]; female) was 3.31 ± 1.99 µM. The t1/2 ([3]; female) was 0.78 ± 0.2 h, the tmax ([3]; female) was 0.87 ± 0.75 h and the “AUC0->24 h” value ([3]; male) was 5.75 ± 1.99 µM·h. It also gave a CL ([3]; male) of 1170 ± 312 mL/min/kg, a Cmax ([3]; male) of 3.31 ± 1.82 µM and a t1/2 ([3]; male) of 1.2 ± 1.2 h. For the same molecule, the tmax ([3]; male) was 0.75 ± 0.28 h, the EC90 (WEEV; Vero 76) was < 1.28 µM and the EC50 (WEEV; Vero 76, WEEV, Vero76 cells) was 1.28 µM. For the same molecule, the EC50 (WEEV; Vero, WEE virus, Vero cell cytopathic effect (CPE) model) was 1.36 µM, the EC90 [4] was 25.2 µM and the half-life (in vivo) was 1.86 h. For the same molecule, the EC50 (HCoV) was < 0.4 µM, the EC90 (VEEV; Vero 76) was 0.8 µM and the EC50 (VEEV; Vero 76, VEEV, Vero76 cells) was 1.28 µM. For the same molecule, the EC50 (VEEV; Vero, VEE virus, Vero cell cytopathic effect (CPE) model) was 1 µM, the EC50 (Pichinde virus) was 18.4 µM and the EC50 (EBOV) was 4.7 µM. It also gave an EC90 (EBOV) of 25 µM, an AUC(0-inf) [5] of 498 ± 40.4 µM·h and a tmax [5] of 1.4 ± 0.5 h. For the same molecule, the selectivity index (CEM cells) was 8.

From patent US11903959B2 (EMORY UNIVERSITY, priority 2017, dated 2024)
